In US11787839B2, “Targeting α2δ-1-bound glutamate receptors for treating diseases and disorders” (Board of Regents, The University of Texas System, priority 2017, dated 2023):

What was measured:
[1] = molecular target: T1, NMDARs of spinally projecting PVN neurons (Rattus norvegicus, UniProt P35439+Q00959+Q00960); assay: Recordings of spinally projecting PVN neurons in rat brain slices (Ang II); type: cell-based; conditions: losartan 2 μmol/L, pregabalin 20 μmol/L, peptides 1 μmol/L
T1 construct: from tissue; host or cells: rat hypothalamic slices containing the PVN (Sprague-Dawley, WKY, SHR) and synaptosomes made from them
Excerpt: Retrograde labeling of spinally projecting PVN neurons: Rats or mice were anesthetized with 2-3% isoflurane, and their spinal cords at the T1-T4 level were exposed through dorsal laminectomy. A fluorescent microsphere suspension (FluoSpheres, 0.04 μm; Molecular Probes, Invitrogen, Eugene, Oreg.) was pressure ejected (Nanoject II Microinjectors, Drummond Scientific Company, Broomall, Pa.) bilaterally into the IML region of the spinal cord in six separate 50-nl injections using a glass micropipette (tip diameter, 20-30 μm). […] The wound was closed with sutures after injection. Animals were returned to their cages for 4-7 days, which was sufficient time to permit the tracer to be retrogradely transported to the PVN. The animals were inspected daily for motor activity, signs of infection, and food and water intake.
Brain slice preparation: Four to seven days after fluorescent tracer injection, the animals were anesthetized with isoflurane and rapidly decapitated. […] Coronal slices (thickness, 300 μm) containing the PVN were cut from the tissue block in the ice-cold aCSF. […] The brain slices were placed in a glass-bottom chamber and continuously perfused with aCSF at 3.0 ml/min at 34° C. maintained by an inline solution heater and temperature controller.
The labeled PVN neurons were briefly identified with the aid of epifluorescence illumination, and whole-cell recordings from labeled PVN neurons were performed under differential interference contrast optics on an upright microscope (BX50 WI; Olympus Optical, Tokyo, Japan). Recordings of postsynaptic currents began 5 min after the whole-cell access was established and the current reached a steady state.
Signals were processed with an […] amplifier (Axon Instruments, Foster City, Calif.). A liquid junction potential of 15 mV (for the potassium gluconate pipette solution) was corrected during off-line analysis.
Postsynaptic NMDAR currents were elicited by puff application of 100 μmol/L NMDA to the recorded neuron using a positive pressure system (4 p.s.i., 50 ms; Toohey Company, Fairfield, N.J.). The tip of the puff pipette was placed 150 μm from the recorded neuron. […] The NMDAR current data presented in the manuscript were the average of 3 consecutive currents elicited by repeated puff NMDA. The neuron was discarded if the current was not stable.
Ang II, losartan, and NMDA were obtained from Sigma (St. Louis, Mo.). The α2δ-1Tat peptide and scrambled control peptide were synthesized by Bio Basic Inc. (Markham, Ontario, Canada) and validated by liquid chromatography and mass spectrometry. […] All drugs were prepared immediately before the experiments and applied to the slice chamber. The brain slices were first pretreated with Ang II, losartan, α2δ-1Tat peptide, or control peptide in the slice incubation chamber before recording. For electrophysiological recording, the treatment agents were immediately removed and the brain slice transferred to a separate recording chamber.

[2] = tested on: rats treated with the Cacna2d1 vector; assay: Withdrawal thresholds in rats overexpressing Cacna2d1 (lentiviral vector); type: in vivo, rat; conditions: Cacna2d1 vector rats; AP5, peptide, gabapentin intrathecal; memantine systemic
[3] = tested on: presynaptic NMDARs of spinal dorsal horn neurons; assay: Spinal cord slice recordings, morphine-treated WT and Cacna2d1 KO mice; conditions: WT mice
[4] = tested on: WT and Cacna2d1 KO mice; assay: Opioid-induced hyperalgesia and analgesic tolerance in WT and Cacna2d1 KO mice
[5] = tested on: morphine-treated rats; assay: Opioid-induced hyperalgesia and analgesic tolerance in rats
[6] = molecular target: presynaptic NMDARs of spinal lamina II neurons (Rattus norvegicus, UniProt P35439+Q00959+Q00960)
[7] = tested on: paclitaxel-treated rats; assay: Paclitaxel-induced pain hypersensitivity in rats; type: in vivo, rat; conditions: intrathecal 5 μg pregabalin, 1 μg peptides
Description: To induce neuropathic pain, rats and mice were intraperitoneally injected with paclitaxel (2 mg/kg; TEVA Pharmaceuticals, North Wales, Pa.) every 2 days for a total of 4 injections (days 1, 3, 5 and 7; total dose, 8 mg/kg), as described previously (Polomano et al., 2001). Animals in the control group were intraperitoneally injected with the vehicle (Cremophor EL/ethanol, 1:1) on the same 4 days. The presence of tactile allodynia was confirmed 10 to 12 days after drug treatment. Intrathecal catheters were implanted in some paclitaxel-treated rats during isoflurane-induced anesthesia. Briefly, a small puncture was made in the atlanto-occipital membrane of the cisterna magna and inserted a PE-10 catheter with the caudal tip reaching the lumbar enlargement of the spinal cord (Chen et al., 2014a; Xie et al., 2016).
Behavioral assessment of nociception: To measure tactile allodynia, mice or rats were individually placed on a mesh floor within a suspended chamber. […]
To quantify the mechanical nociceptive threshold in rats, the paw pressure (Randall-Selitto) test was conducted on the left hindpaw using an analgesiometer (Ugo Basile, Varese, Italy). […] When the rat withdrew its paw or vocalized, the pedal was immediately released, and the withdrawal threshold was recorded (Chen et al., 2014a). […]
To assess the thermal sensitivity of rats, the were placed individually on the glass surface of a thermal testing apparatus (IITC Life Sciences, Woodland Hills, Calif.). […] The paw withdrawal latency was recorded with a timer, and the hindpaw was tested twice to obtain an average time. […] After the threshold temperature was recorded, the mice were immediately removed from the plate. The heat threshold measurement was repeated 30 min later, and the average of the 2 recorded temperatures was considered as the heat threshold. The cold threshold was measured by cooling the plate from 30° C. at a rate of 6° C./min until nocifensive behaviors were observed. […]

[8] = WT mice, morphine 10 mg/kg twice a day, 8 days
[9] = daily morphine in vehicle- or control peptide-treated rats
[10] = paclitaxel-treated rats, AP5 50 μM, pregabalin 20 μM, peptides 1 μM
[11] = vehicle-treated rats, AP5 50 μM, pregabalin 20 μM, peptides 1 μM

Sequence of presynaptic NMDARs of spinal lamina II neurons (Q00959 20-1464 limits assumed, other chains not shown): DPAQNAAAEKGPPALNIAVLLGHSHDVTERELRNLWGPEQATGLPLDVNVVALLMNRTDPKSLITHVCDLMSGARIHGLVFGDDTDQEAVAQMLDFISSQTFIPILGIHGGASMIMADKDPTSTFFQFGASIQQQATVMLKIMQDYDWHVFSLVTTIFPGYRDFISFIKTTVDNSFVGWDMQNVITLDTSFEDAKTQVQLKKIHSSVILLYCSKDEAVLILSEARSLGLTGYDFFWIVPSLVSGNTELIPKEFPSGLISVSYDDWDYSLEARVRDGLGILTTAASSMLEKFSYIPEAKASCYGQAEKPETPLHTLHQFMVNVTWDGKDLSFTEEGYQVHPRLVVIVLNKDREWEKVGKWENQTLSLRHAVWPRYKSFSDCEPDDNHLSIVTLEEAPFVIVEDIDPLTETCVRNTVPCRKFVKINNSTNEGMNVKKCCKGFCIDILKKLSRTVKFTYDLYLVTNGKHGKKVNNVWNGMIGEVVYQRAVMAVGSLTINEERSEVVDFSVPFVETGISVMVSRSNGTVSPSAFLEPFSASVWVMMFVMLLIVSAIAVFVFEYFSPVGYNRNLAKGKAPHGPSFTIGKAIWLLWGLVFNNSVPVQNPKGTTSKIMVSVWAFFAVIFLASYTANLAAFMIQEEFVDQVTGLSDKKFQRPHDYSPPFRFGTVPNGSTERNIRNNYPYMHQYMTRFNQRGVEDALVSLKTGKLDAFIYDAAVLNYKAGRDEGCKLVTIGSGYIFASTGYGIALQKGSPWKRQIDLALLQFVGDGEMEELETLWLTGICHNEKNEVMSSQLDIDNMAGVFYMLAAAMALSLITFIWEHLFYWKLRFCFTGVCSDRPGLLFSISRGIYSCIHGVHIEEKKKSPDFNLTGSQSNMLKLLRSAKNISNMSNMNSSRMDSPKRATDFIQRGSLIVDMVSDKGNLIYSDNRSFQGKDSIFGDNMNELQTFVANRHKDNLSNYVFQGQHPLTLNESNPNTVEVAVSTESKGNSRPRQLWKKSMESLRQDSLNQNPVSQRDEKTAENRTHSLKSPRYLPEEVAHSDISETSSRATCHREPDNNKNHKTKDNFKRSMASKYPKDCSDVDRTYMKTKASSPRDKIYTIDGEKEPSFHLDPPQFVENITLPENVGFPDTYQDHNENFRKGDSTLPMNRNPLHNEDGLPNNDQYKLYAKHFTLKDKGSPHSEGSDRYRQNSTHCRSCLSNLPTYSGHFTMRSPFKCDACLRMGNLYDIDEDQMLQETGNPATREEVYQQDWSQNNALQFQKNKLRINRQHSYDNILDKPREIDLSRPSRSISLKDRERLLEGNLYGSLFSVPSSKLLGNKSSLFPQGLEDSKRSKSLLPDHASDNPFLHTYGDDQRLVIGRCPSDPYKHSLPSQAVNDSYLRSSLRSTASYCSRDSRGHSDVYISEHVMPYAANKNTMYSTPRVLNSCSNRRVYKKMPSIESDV
Sequence of presynaptic NMDARs of spinal lamina II neurons (Q00960 27-1482, other chains not shown): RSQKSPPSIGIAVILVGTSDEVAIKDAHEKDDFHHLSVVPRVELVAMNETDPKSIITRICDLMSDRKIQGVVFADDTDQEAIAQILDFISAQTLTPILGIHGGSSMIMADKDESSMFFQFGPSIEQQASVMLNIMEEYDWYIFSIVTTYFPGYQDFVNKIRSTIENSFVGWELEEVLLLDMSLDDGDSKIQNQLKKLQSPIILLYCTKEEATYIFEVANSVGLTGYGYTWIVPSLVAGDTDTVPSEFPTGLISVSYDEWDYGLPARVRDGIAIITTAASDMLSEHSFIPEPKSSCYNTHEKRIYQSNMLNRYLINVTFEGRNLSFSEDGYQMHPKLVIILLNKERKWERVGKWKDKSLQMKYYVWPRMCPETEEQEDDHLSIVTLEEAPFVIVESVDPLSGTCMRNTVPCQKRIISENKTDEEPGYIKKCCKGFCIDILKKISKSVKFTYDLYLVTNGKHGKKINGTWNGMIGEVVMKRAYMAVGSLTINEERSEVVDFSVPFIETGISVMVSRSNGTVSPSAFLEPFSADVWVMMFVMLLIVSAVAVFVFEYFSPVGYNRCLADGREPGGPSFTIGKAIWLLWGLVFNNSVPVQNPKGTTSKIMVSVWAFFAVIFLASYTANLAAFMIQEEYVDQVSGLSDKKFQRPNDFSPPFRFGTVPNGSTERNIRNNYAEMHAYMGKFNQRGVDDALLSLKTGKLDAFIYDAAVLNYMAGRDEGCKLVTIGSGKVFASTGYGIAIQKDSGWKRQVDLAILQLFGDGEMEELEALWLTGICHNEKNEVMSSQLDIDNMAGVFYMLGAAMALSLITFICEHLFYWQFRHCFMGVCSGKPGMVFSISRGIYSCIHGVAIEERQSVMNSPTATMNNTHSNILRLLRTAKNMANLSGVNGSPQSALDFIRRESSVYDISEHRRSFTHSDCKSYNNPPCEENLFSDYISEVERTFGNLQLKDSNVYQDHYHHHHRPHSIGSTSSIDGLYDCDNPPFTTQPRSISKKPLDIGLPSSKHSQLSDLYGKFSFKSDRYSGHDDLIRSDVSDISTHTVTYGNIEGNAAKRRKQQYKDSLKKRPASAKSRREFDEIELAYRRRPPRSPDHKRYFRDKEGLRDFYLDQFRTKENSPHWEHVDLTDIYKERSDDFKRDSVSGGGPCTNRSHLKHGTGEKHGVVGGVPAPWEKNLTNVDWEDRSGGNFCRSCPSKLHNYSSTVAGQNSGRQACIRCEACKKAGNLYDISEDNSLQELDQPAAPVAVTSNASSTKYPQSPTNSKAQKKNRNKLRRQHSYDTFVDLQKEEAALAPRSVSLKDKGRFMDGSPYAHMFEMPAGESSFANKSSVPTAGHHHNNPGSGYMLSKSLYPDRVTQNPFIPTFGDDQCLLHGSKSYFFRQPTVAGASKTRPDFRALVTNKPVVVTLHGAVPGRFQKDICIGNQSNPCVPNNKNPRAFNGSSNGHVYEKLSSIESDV

CCCCc1nc(Cl)c(CO)n1Cc1ccc(-c2ccccc2-c2nn[nH]n2)cc1 [losartan]
effect of Ang II on mEPSC frequency in pretreated slices [1]: completely blocked
effect of Ang II on puff NMDA currents in pretreated slices ([1]; 30 min): abolished

CC12CC3CC(C)(C1)CC(N)(C3)C2 [memantine]
pain hypersensitivity induced by Cacna2d1 overexpression (tactile and pressure withdrawal thresholds) [2]: readily reversed

CN1CC[C@]23c4c5ccc(O)c4O[C@H]2[C@@H](O)C=C[C@H]3[C@H]1C5.O=S(=O)(O)O [morphine, morphine sulfate]
amplitude of monosynaptic EPSCs evoked from the dorsal root ([3]; chronic morphine): markedly increased
NMDAR-mediated frequency of mEPSCs of spinal dorsal horn neurons ([3]; morphine 10 mg/kg twice a day for 8 day): significantly increased
anti-nociceptive effect of morphine at the end of 8-day treatment ([4]; Cacna2d1 KO mice): largely preserved
baseline withdrawal threshold ([4]; Cacna2d1 KO mice, daily morphine): did not significantly affect
anti-nociceptive effect of morphine [4, 8]: diminished
baseline withdrawal thresholds to noxious pressure and heat [4, 8]: gradually reduced
effect of 5 mg/kg morphine on the withdrawal thresholds ([5]; by day 6, vehicle- or control peptide-treated rats): failed to produce a significant effect
anti-nociceptive effect of morphine [5, 9]: gradual decrease
baseline withdrawal thresholds (mechanical and thermal hyperalgesia) [5, 9]: gradual reduction

CC(C)C[C@H](CN)CC(=O)O [pregabalin]
reduced PPR of evoked EPSCs ([6]; paclitaxel-treated rats): completely normalized
increased amplitude of evoked monosynaptic EPSCs [6, 10]: returned the amplitude of evoked monosynaptic EPSCs of lamina II neurons to the baseline level
increased frequency of mEPSCs of lamina II neurons [6, 10]: completely normalized
PPR of evoked EPSCs ([6]; vehicle-treated rats): had no effect
amplitude of evoked monosynaptic EPSCs [6, 11]: had no effect
frequency of mEPSCs of lamina II neurons [6, 11]: had no effect
paclitaxel-induced pain hypersensitivity (tactile allodynia, mechanical and thermal hyperalgesia) [7]: readily reversed
